# Patent US10703764B2, “Benzopiperazine compositions as BET bromodomain inhibitors” (FORMA Therapeutics, Inc., priority 2013, dated 2020)
# Where two headings read alike, the source gives them in different places.
# Experiments:
# MV4-11 cells = experiment: Oncology cell growth assay (3-day proliferation, CellTiter-Glo); format: cell-based; details: Homo sapiens, AML cell line MV4-11, 72 hours, compounds grouped by IC50 range, read-out: MV4-11 IC50 (inhibition of proliferation, gIC50)
# Summary of the method: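 72 h, 37° C, 5% CO2; MV4-11, 3000 cells/well, RPMI 1640 + 10% FBS. Compound final 10, 3.3, 1.1, 0.37, 0.12, 0.041, 0.013, 0.0045 μM. Readout CellTiter-Glo luminescence; gIC50 by 4-parameter logistic fit, normalised to DMSO and no-cell background.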
# BRD4 BD1 = target: T1, BRD4 BD1 (Homo sapiens, UniProt O60885); experiment: AlphaScreen binding assay, BRD4 Bromodomain 1
# T1 construct: made in house
# Summary of the method: (§1)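 An AlphaScreen competition format was used with His-BRD4 BD1 or BD2 and biotin-H4 K5/8/12/16-acetyl peptide, each at matched final levels of 50 nM (BD1) or 100 nM (BD2). Incubation in HEPES/NaCl buffer with 0.1% BSA and 0.01% Triton X-100 ran ≥1 h before IC50 determination.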
# BRD4 BD2 = target: T2, BRD4 BD2 (Homo sapiens, UniProt O60885); experiment: AlphaScreen binding assay, BRD4 Bromodomain 2
# T2 construct: made in house
# Summary of the method: as §1
"IC50 (MV4-11 cells; MV4-11, 72 h)",IC50 (BRD4 BD1),IC50 (BRD4 BD2),Compound,IC50 (MV4-11 cells)
100 to 500 nM,100 to 1000 nM,50 to 500 nM,CCCS(=O)(=O)c1ccc(-c2ccc3c(c2)N(C(=O)OC2CCOCC2)C[C@H](C)N3C(C)=O)cc1 [Example I-1236],–
100 to 500 nM,100 to 1000 nM,50 to 500 nM,CC(=O)N1c2ccc(-c3ccc(S(=O)(=O)CC4CC4)cc3)cc2N(C(=O)OC2CCCCC2)C[C@@H]1C [Example I-1237],–
> 500 nM,100 to 1000 nM,50 to 500 nM,CC(=O)N1c2ccc(-c3ccc(S(=O)(=O)CC4CC4)cc3)cc2N(C(=O)OC2CCOCC2)C[C@@H]1C [Example I-1238],–
100 to 500 nM,100 to 1000 nM,50 to 500 nM,CC(=O)N1c2ccc(-c3ccc(S(=O)(=O)CC(C)C)cc3)cc2N(C(=O)OC2CCCCC2)C[C@@H]1C [Example I-1239],–
100 to 500 nM,100 to 1000 nM,50 to 500 nM,CC(=O)N1c2ccc(-c3ccc(S(=O)(=O)CC(C)C)cc3)cc2N(C(=O)OC2CCOCC2)C[C@@H]1C [Example I-1240],–
100 to 500 nM,100 to 1000 nM,50 to 500 nM,CC(=O)N1c2ccc(-c3ccc(S(C)(=O)=O)c(F)c3)cc2N(C(=O)OC2CCCCC2)C[C@@H]1C [Example I-1241],–
> 500 nM,1000 to 10000 nM,50 to 500 nM,CC(=O)N1c2ccc(-c3ccc(S(C)(=O)=O)c(F)c3)cc2N(C(=O)OC2CCOCC2)C[C@@H]1C [Example I-1242],–
100 to 500 nM,100 to 1000 nM,50 to 500 nM,CC(=O)N1c2ccc(-c3cccc(S(=O)(=O)C4CC4)c3)cc2N(C(=O)OC2CCCCC2)C[C@@H]1C [Example I-1243],–
100 to 500 nM,100 to 1000 nM,50 to 500 nM,CC(=O)N1c2ccc(-c3cccc(S(=O)(=O)C4CC4)c3)cc2N(C(=O)OC2CCOCC2)C[C@@H]1C [Example I-1244],–
100 to 500 nM,100 to 1000 nM,50 to 500 nM,CCS(=O)(=O)c1cccc(-c2ccc3c(c2)N(C(=O)OC2CCCCC2)C[C@H](C)N3C(C)=O)c1 [Example I-1245],–
100 to 500 nM,100 to 1000 nM,50 to 500 nM,CCS(=O)(=O)c1cccc(-c2ccc3c(c2)N(C(=O)OC2CCOCC2)C[C@H](C)N3C(C)=O)c1 [Example I-1246],–
> 500 nM,1000 to 10000 nM,> 500 nM,CC(=O)N1c2ccc(-c3cc(Cl)cc(S(C)(=O)=O)c3)cc2N(C(=O)OC2CCCCC2)C[C@@H]1C [Example I-1247],–
100 to 500 nM,100 to 1000 nM,> 500 nM,CC(=O)N1c2ccc(-c3cc(Cl)cc(S(C)(=O)=O)c3)cc2N(C(=O)OC2CCOCC2)C[C@@H]1C [Example I-1248],–
100 to 500 nM,1000 to 10000 nM,50 to 500 nM,CC(=O)N1c2ccc(-c3ccc(F)c(S(C)(=O)=O)c3)cc2N(C(=O)OC2CCCCC2)C[C@@H]1C [Example I-1249],–
> 500 nM,1000 to 10000 nM,> 500 nM,CC(=O)N1c2ccc(-c3ccc(F)c(S(C)(=O)=O)c3)cc2N(C(=O)OC2CCOCC2)C[C@@H]1C [Example I-1250],–
100 to 500 nM,100 to 1000 nM,50 to 500 nM,CC(=O)N1c2ccc(-c3ccc(OCCS(C)(=O)=O)cc3)cc2N(C(=O)OC2CCCCC2)C[C@@H]1C [Example I-1251],–
100 to 500 nM,100 to 1000 nM,50 to 500 nM,CC(=O)N1c2ccc(-c3ccc(OCCS(C)(=O)=O)cc3)cc2N(C(=O)OC2CCOCC2)C[C@@H]1C [Example I-1252],–
100 to 500 nM,100 to 1000 nM,50 to 500 nM,CNS(=O)(=O)c1cccc(-c2ccc3c(c2)N(C(=O)OC2CCCCC2)C[C@H](C)N3C(C)=O)c1 [Example I-1253],–
< 100 nM,100 to 1000 nM,50 to 500 nM,CNS(=O)(=O)c1cccc(-c2ccc3c(c2)N(C(=O)OC2CCOCC2)C[C@H](C)N3C(C)=O)c1 [Example I-1254],–
100 to 500 nM,100 to 1000 nM,50 to 500 nM,CC(=O)N1c2ccc(-c3cccc(S(=O)(=O)NCCO)c3)cc2N(C(=O)OC2CCCCC2)C[C@@H]1C [Example I-1255],–
100 to 500 nM,100 to 1000 nM,50 to 500 nM,CC(=O)N1c2ccc(-c3cccc(S(=O)(=O)NCCO)c3)cc2N(C(=O)OC2CCOCC2)C[C@@H]1C [Example I-1256],–
100 to 500 nM,100 to 1000 nM,50 to 500 nM,CCN(CC)S(=O)(=O)c1cc(-c2ccc3c(c2)N(C(=O)OC2CCCCC2)C[C@H](C)N3C(C)=O)ccc1OC [Example I-1257],–
100 to 500 nM,100 to 1000 nM,50 to 500 nM,CCN(CC)S(=O)(=O)c1cc(-c2ccc3c(c2)N(C(=O)OC2CCOCC2)C[C@H](C)N3C(C)=O)ccc1OC [Example I-1258],–

"IC50 (MV4-11 cells; MV4-11, 72 h)",IC50 (BRD4 BD1),IC50 (BRD4 BD2),Compound,IC50 (MV4-11 cells)
100 to 500 nM,100 to 1000 nM,50 to 500 nM,CC(=O)N1c2ccc(-c3ccc(S(=O)(=O)n4cccn4)cc3)cc2N(C(=O)OC2CCCCC2)C[C@@H]1C [Example I-1259],–
> 500 nM,100 to 1000 nM,50 to 500 nM,CC(=O)N1c2ccc(-c3ccc(S(=O)(=O)n4cccn4)cc3)cc2N(C(=O)OC2CCOCC2)C[C@@H]1C [Example I-1260],–
100 to 500 nM,100 to 1000 nM,50 to 500 nM,CNS(=O)(=O)c1ccc(-c2ccc3c(c2)N(C(=O)OC2CCCCC2)C[C@H](C)N3C(C)=O)cc1 [Example I-1261],–
100 to 500 nM,100 to 1000 nM,50 to 500 nM,CNS(=O)(=O)c1ccc(-c2ccc3c(c2)N(C(=O)OC2CCOCC2)C[C@H](C)N3C(C)=O)cc1 [Example I-1262],–
100 to 500 nM,100 to 1000 nM,50 to 500 nM,CC(=O)N1c2ccc(-c3ccc(S(=O)(=O)N(C)C)cc3)cc2N(C(=O)OC2CCCCC2)C[C@@H]1C [Example I-1263],–
100 to 500 nM,100 to 1000 nM,50 to 500 nM,CC(=O)N1c2ccc(-c3ccc(S(=O)(=O)N(C)C)cc3)cc2N(C(=O)OC2CCOCC2)C[C@@H]1C [Example I-1264],–
100 to 500 nM,100 to 1000 nM,50 to 500 nM,CC(=O)N1c2ccc(-c3ccc(S(=O)(=O)NC(C)(C)C)cc3)cc2N(C(=O)OC2CCCCC2)C[C@@H]1C [Example I-1265],–
100 to 500 nM,100 to 1000 nM,50 to 500 nM,CC(=O)N1c2ccc(-c3ccc(S(=O)(=O)NC(C)(C)C)cc3)cc2N(C(=O)OC2CCOCC2)C[C@@H]1C [Example I-1266],–
100 to 500 nM,100 to 1000 nM,50 to 500 nM,CC(=O)N1c2ccc(-c3ccc(N4CCCC4=O)cc3)cc2N(C(=O)OC2CCCCC2)C[C@@H]1C [Example I-1267],–
100 to 500 nM,100 to 1000 nM,50 to 500 nM,CC(=O)N1c2ccc(-c3ccc(N4CCCC4=O)cc3)cc2N(C(=O)OC2CCOCC2)C[C@@H]1C [Example I-1268],–
< 100 nM,100 to 1000 nM,50 to 500 nM,CCS(=O)(=O)Nc1ccc(-c2ccc3c(c2)N(C(=O)OC2CCCCC2)C[C@H](C)N3C(C)=O)cc1 [Example I-1269],–
100 to 500 nM,100 to 1000 nM,50 to 500 nM,CCS(=O)(=O)Nc1ccc(-c2ccc3c(c2)N(C(=O)OC2CCOCC2)C[C@H](C)N3C(C)=O)cc1 [Example I-1270],–
< 100 nM,100 to 1000 nM,50 to 500 nM,COc1ccc(-c2ccc3c(c2)N(C(=O)OC2CCCCC2)C[C@H](C)N3C(C)=O)cc1NS(C)(=O)=O [Example I-1271],–
100 to 500 nM,100 to 1000 nM,50 to 500 nM,COc1ccc(-c2ccc3c(c2)N(C(=O)OC2CCOCC2)C[C@H](C)N3C(C)=O)cc1NS(C)(=O)=O [Example I-1272],–
100 to 500 nM,100 to 1000 nM,50 to 500 nM,CC(=O)N1c2ccc(-c3cccc(NS(=O)(=O)N(C)C)c3)cc2N(C(=O)OC2CCCCC2)C[C@@H]1C [Example I-1273],–
100 to 500 nM,100 to 1000 nM,50 to 500 nM,CC(=O)N1c2ccc(-c3cccc(NS(=O)(=O)N(C)C)c3)cc2N(C(=O)OC2CCOCC2)C[C@@H]1C [Example I-1274],–
100 to 500 nM,100 to 1000 nM,< 50 nM,CC(=O)N1c2ccc(-c3cnn(C(C)(C)CO)c3)cc2N(C(=O)OC(C)C)C[C@@H]1C [Example I-1275],–
100 to 500 nM,100 to 1000 nM,50 to 500 nM,CC(=O)N1c2ccc(-c3cnn(CCS(C)(=O)=O)c3)cc2N(C(=O)Oc2cccnc2)C[C@@H]1C [Example I-1279],–
100 to 500 nM,100 to 1000 nM,50 to 500 nM,CC(=O)N1c2ccc(-c3cnn(CCO)c3)cc2N(C(=O)Oc2cccnc2)C[C@@H]1C [Example I-1281],–
100 to 500 nM,100 to 1000 nM,50 to 500 nM,CC(=O)N1c2ccc(-c3cnn(C(C)(C)CO)c3)cc2N(C(=O)Oc2cccnc2)C[C@@H]1C [Example I-1284],–
100 to 500 nM,100 to 1000 nM,50 to 500 nM,CC(=O)N1c2ccc(-c3ccc(N4CCCS4(=O)=O)cc3)cc2N(C(=O)Oc2cccnc2)C[C@@H]1C [Example I-1286],–
100 to 500 nM,100 to 1000 nM,50 to 500 nM,CC(=O)N1c2ccc(-c3ccc(N(C)S(C)(=O)=O)cc3)cc2N(C(=O)Oc2cccnc2)C[C@@H]1C [Example I-1292],–

Compound,"IC50 (MV4-11 cells; MV4-11, 72 h)",IC50 (BRD4 BD1),IC50 (BRD4 BD2),IC50 (MV4-11 cells)
CC(=O)N1c2ccc(-c3cnn(C4CNC4)c3)cc2N(C(=O)Oc2cccnc2)C[C@@H]1C [Example I-1294],–,100 to 1000 nM,50 to 500 nM,> 500 nM
